Measurements taken from patent US20230372273A1, “IONIC LIQUID COMPOSITIONS FOR SKIN DISEASES AND CONDITIONS” (CAGE BIO, INC., priority 2020, published 2023).

Legend:
[1] = cited from earlier work
[2] = Human cadaver skin permeation (Franz cells); type: in vitro ADME
Protocol: Human cadaver skin permeation evaluation. Dermatomed full thickness human cadaver skin samples, 250-350 μm, were mounted onto static Franz cells. […] Phosphate buffered saline (PBS), pH 7.4 was used as the receptor medium. CGB400 gel was applied to the stratum corneum side of the skin samples at a dose of 15 μL/cm^2 ( 15 mg/cm^2). The cells were kept in a chamber at 37 C for a period of 24 h. […] in the receptor chamber ensured that the receptor media was well mixed during this time. The receptor media was sampled at 4, 7, and 24 hours to quantify the amount of choline and geranic acid permeation. After 24 hours, the skin surface was washed before removing the stratum corneum (SC) by tape stripping. […] Following SC removal, the epidermis was separated from the dermis using a surgical sterile scalpel and the dermis was cut into pieces. Each layer was collected separately in glass vials containing 2 mL of 50:50 water:methanol mixture and was left to shake overnight to extract the choline and geranic acid. The amount of choline and geranic acid was measured using LC-MS/MS in the wash, epidermis, dermis, and the receptor medium.

Recombinant human KLK5 = target: T1, Recombinant human KLK5 (Homo sapiens, UniProt Q9Y337); assay: hKLK5 enzymatic assay; type: biochemical; conditions: substrate S-2288, OD 405 nm, 37° C.; read-out: IC50 against hKLK5
T1 construct: purchased Speed Biosystems LLC YS1485
T1 sequence (Q9Y337 23-293): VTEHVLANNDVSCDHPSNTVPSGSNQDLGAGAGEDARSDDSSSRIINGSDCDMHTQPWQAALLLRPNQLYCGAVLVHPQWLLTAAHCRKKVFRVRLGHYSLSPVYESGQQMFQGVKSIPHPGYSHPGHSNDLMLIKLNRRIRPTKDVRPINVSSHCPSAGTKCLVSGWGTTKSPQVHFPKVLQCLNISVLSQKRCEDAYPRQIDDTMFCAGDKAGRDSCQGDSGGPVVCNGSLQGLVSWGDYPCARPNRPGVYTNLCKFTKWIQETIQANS
Protocol: hKLK5 Enzymatic Assay. Test compound CAGE1:2 (87.07% w/v) was diluted to 0.99 mM and control compound Aprotinin was prepared at 6 μM in di-water. A 2-fold serial dilution was then performed in di-water to generate 10 concentrations for CAGE1:2 (87.07% w/v) and 8 concentrations for Aprotinin which were 2× of the final concentrations in the reaction. Recombinant human KLK5 was purchased from Speed Biosystems LLC (Catalog No. YS1485, Lot No. 0330517, 17.2 μM). The substrate S-2288 was purchased from Diapharma Group, Inc (Catalog No. S820852, Lot No. N0889942).
The assay was carried out in 384-well clear bottom plate coated with 0.1% Tween 20 at 4° C. overnight and washed twice with di-water before usage. 50 μL 2× compound in water was mixed with 25 μL 4× hKLK5 enzyme (120 nM) prepared in 2× reaction buffer (100 mM Tris, pH 8.0, 200 mM NaCl, 0.2% PEG, 0.01% Tween 20, 2 mM EDTA). The enzymatic reaction was initiated by the addition of 25 μL 4× substrate S-2288 (2 mM) in 2× reaction buffer to all wells. OD 405 nm was measured every 30 seconds by SpetraMax 384 Plus at 37° C. for 1 hour.

[3] = system: Propionibacterium acnes clinical isolates

Molecule | Log P [1] | applied dose penetrated into the dermis [2] | estimated epidermal CAGE concentration [2] [mM] | molar ratio of choline to geranic acid in the epidermis [2] | IC50 (Recombinant human KLK5) [mM] | effective concentration for antibacterial activity [3] [mM] | Minimum Inhibitory Concentration (MIC) ([3]; P. acnes isolates, 48 hours)
CC(C)=CCC/C(C)=C/C(=O)O [geranic acid, 3,7-dimethyl-2,6-octadienoic acid] | 2.8 |  |  |  |  |  | 
Choline geranate [CAGE1:2] |  | About 9.5% | ~76 | 1.18 | ~30 | < 0.45 | 0.025-0.2 % of neat CAGE1:2
